Here are results for four compounds from PMC9495262, “In Vitro Antiparasitic Activities of Monovalent Ionophore Compounds for Human and Canine Leishmaniases” (Animals : an Open Access Journal from MDPI, 2022).

Like-named read-outs stand apart in the source and are kept apart here.

Data set [1] deals with L. infantum promastigotes. In words: Leishmania promastigote viability assay (MTT), L. infantum. In kind it is cell-based. As to conditions: mean ± SD of three experiments in duplicate. The protocol:
(§1) Promastigote stages of L. infantum strain (MHOM/TN/80/IPT1) (WHO international reference strain, kindly provided by Dr. M. Gramiccia and Dr. T. Di Muccio, ISS, Roma, Italy), and clinical isolates of L. tropica (MHOM/SY/2012/ISS3130) and L. braziliensis (MHOM/PE/2006/ISS2848) (kindly provided by Dr. R. Grande, Sacco Hospital, Milan, Italy), were cultured in Schneider’s Drosophila medium (Lonza) supplemented with 2 mM L-glutamine and 10% heat-inactivated FBS (HyClone) at 24 °C.
(§2) To estimate the 50% inhibitory concentration (IC50) of compounds on both cells and Leishmania promastigotes, the MTT (3-[4,5-dimethylthiazol-2-yl]-2,5-diphenyltetrazolium bromide) assay was used with minor modifications. Briefly, monensin and nigericin were dissolved in ethanol (10 mg/mL), and salinomycin and amphotericin B in DMSO (10 mg/mL). All compounds were then diluted with medium to achieve the required concentrations (final DMSO or ethanol concentration <1%, non-toxic to the parasite or cells). The complete medium used for the antileishmanial activity assay was RPMI 1640 (EuroClone) supplemented with 10% heat-inactivated FBS (EuroClone), 20 mM HEPES, and 2 mM L -glutamine. Drugs were added to 96-well round-bottom microplates and seven serial dilutions were performed. Amphotericin B was used as the reference anti-Leishmania drug. Subsequently, 100 μL of the parasite suspension (5 × 10^6 parasites/mL) was dispensed into the plates. After 72h of incubation at 24 °C, 20 μL of MTT solution (5 mg/mL in PBS) was added into each well. After 3 h in the dark, the plates were centrifuged, the supernatants discarded, and the formazan crystals in the pellet dissolved in 100 μL of lysing buffer (20% w/v of a solution of SDS -Merck-, and 40% of N,N-dimethylformamide -Merck- in H2O).
(§3) For cell cytotoxicity experiments, 100 μL (5 × 10 ^5 cells/mL) of THP-1 cells were plated in 96-well flat-bottom microplates and treated with 0.1 µM phorbol myristate acetate (PMA, Merck, Kenilworth, NJ, USA) for 72 h to achieve differentiation into macrophages. Cells were then treated with different drug concentrations (60–0.4 µM). After 72 h, 20 μL of the MTT solution was added into each well. After 3 h in the dark, the supernatants were discarded and the formazan crystals dissolved in 100 μL of the same lysing buffer described above. The absorbance was then measured spectrophotometrically at 550 nm (reference wavelength 650 nm). The results are expressed as IC50, which is the dose of compound necessary to inhibit parasite and cell growth by 50%. The IC50 values were extrapolated from nonlinear regression analysis of the concentration–response curve using the software Gen5 1.10 provided with the Synergy 4 (BioTek, Winooski, VT, USA) reader. Data are the mean ± standard deviation of individual experiments performed in duplicate.

The test system of data set [2] is L. braziliensis promastigotes. Put plainly: Leishmania promastigote viability assay (MTT), L. braziliensis. In kind it is cell-based. As to conditions: mean ± SD of three experiments in duplicate. The protocol:
as §1, §2, §3

Another data set deals with L. tropica promastigotes. In words: Leishmania promastigote viability assay (MTT), L. tropica. In kind it is cell-based. The conditions noted are these: mean ± SD of three experiments in duplicate. As to the method:
as §1, §2, §3

Data set [3] can be described thus: Cytotoxicity (MTT) on PMA-differentiated THP-1 macrophages. In kind it is cell-based. As to conditions: human. The protocol:
THP-1 cells (human acute monocytic leukemia cell line) were maintained in Roswell Park Memorial Institute (RPMI) 1640 medium supplemented with 10% fetal bovine serum (FBS, EuroClone), 50 µM 2-mercaptoethanol, 20 mM HEPES, and 2 mM L-glutamine, at 37 °C in 5% CO2.
as §3

The next data set is described as follows: in vitro. In kind it is cell-based. As to conditions: human. The protocol:
as §3
Non-infected human macrophages (PMA-differentiated THP-1, dTHP-1) and human dermal fibroblasts (HDF) were incubated in the presence of different concentrations of ionophores to determine the nontoxic concentration for mammalian cells.

Data set [4] has as its system L. infantum intracellular amastigotes. In words: Intracellular amastigote susceptibility assay in human dTHP-1 (Giemsa counting). In kind it is cell-based, Leishmania infantum. The conditions noted are these: for IC50: Leishmania infantum, read-out: Amastigotes IC50; for SI (Selectivity index = IC50 dTHP-1/IC50 amastigotes): ratio of cytotoxicity on dTHP-1 to activity on L. infantum amastigotes. The protocol: For Leishmania spp. infections, 100 μL of THP-1 cells (5 × 10^5 cells/mL) or canine macrophages (2 × 10^6 cells/mL) were plated in 16-chamber Lab-Tek culture slides (Nunc) and further treated with 0.1 µM of PMA for 72 h to achieve differentiation into macrophages. Cells were then washed with PBS and infected with stationary phase L. infantum promastigotes at a macrophage:promastigote ratio of 1:10. After 24 h, cell monolayers were extensively washed with PBS to remove non-internalized promastigotes and observed under an inverted light microscope to evaluate both the cellular size and the cellular morphology. Infected cells were then incubated in the presence of test compounds for 72 h. Infected and/or treated cells were then fixed with 100% methanol and stained with Giemsa at room temperature. The percentage of infected macrophages in treated and non-treated wells was determined by counting 200–300 macrophages/well under a light microscope. About 10 random microscopic fields/well were observed. The number of infected macrophages in the untreated control samples was considered 100% for calculating the percentage of infection in drug treated samples. IC50 values were then calculated. Data are the mean ± standard deviation of individual experiments performed in triplicate.
Next, human macrophages (dTHP-1) were infected with stationary-phase promastigotes of L. infantum at a cell:promastigote ratio of 1:10 for 24 h, and allowed to differentiate into intracellular parasite forms. After the removal of free promastigotes, the infected macrophages were incubated for 72 h in the presence of the ionophores at different concentrations. A significant reduction in the number of infected macrophages was observed after treatment with all the compounds tested. The inhibition was dose-dependent with IC50s between 1 and 2 µM (Table 3).

The test system of data set [5] is all Leishmania spp. promastigotes. Put plainly: Promastigote viability assay, all Leishmania species tested (summary statements). As to conditions: read-out: IC50 against all Leishmania spp. promastigotes tested. The class given is cell-based. The protocol: as §1
as §2, with “After 3 h in the dark, the plates were centrifuged, the supernatants discarded, and the formazan crystals in the pellet dissolved in 100 μL of lysing buffer (20% w/v of a solution of SDS -Merck-, and 40% of N,N-dimethylformamide -Merck- in H2O).” left out
For cell cytotoxicity experiments, 100 μL (5 × 10 ^5 cells/mL) of THP-1 cells were plated in 96-well flat-bottom microplates and treated with 0.1 µM phorbol myristate acetate (PMA, Merck, Kenilworth, NJ, USA) for 72 h to achieve differentiation into macrophages. […] The absorbance was then measured spectrophotometrically at 550 nm (reference wavelength 650 nm). […] The IC50 values were extrapolated from nonlinear regression analysis of the concentration–response curve using the software Gen5 1.10 provided with the Synergy 4 (BioTek, Winooski, VT, USA) reader. […]

Data set [6] deals with L. donovani intracellular amastigotes. The arrangement: method as in PMID 21358812. The conditions noted are these: read-out: IC50 against intracellular amastigotes, ex vivo splenic explant model of L. donovani infection; cited from earlier work.
In data set [7] the test system is promastigotes of L. donovani. Details: method as in PMID 12864731. The conditions noted are these: previous work; read-out: IC50 against promastigotes of L. donovani; cited from earlier work.
Setting [8] is: Leishmania infantum, MTT assay after 72 h of treatment, read-out: IC50 against L. infantum promastigotes.
Setting [9] is: Leishmania braziliensis, MTT assay after 72 h of treatment, read-out: IC50 against L. braziliensis promastigotes.
[10] abbreviates: Leishmania tropica, MTT assay after 72 h of treatment, read-out: IC50 against L. tropica promastigotes.
The mark [11] stands for this setting: L. infantum-infected dTHP-1 treated for 72 h, Giemsa, percentage of infected cells.
[12] abbreviates: L. infantum, L. tropica and L. braziliensis promastigotes, summary statement.
Setting [13] is: non-infected PMA-differentiated THP-1 macrophages (dTHP-1), non-infected PMA-differentiated THP-1, MTT assay after 72 h of treatment, read-out: CC50 dTHP-1.

Take `CC[C@@]1([C@@H]2O[C@@H]([C@H]3O[C@@](O)(CO)[C@H](C)C[C@@H]3C)C[C@@H]2C)CC[C@H]([C@]2(C)CC[C@]3(C[C@H](O)[C@@H](C)[C@@H]([C@@H](C)[C@@H](OC)[C@H](C)C(=O)O)O3)O2)O1` [Monensin, monensin]: the IC50 is 0.63 ± 0.11 µM in data set [1] (setting [8]); 0.27 ± 0.13 µM in [2] (setting [9]); 0.35 ± 0.17 µM in the data set on L. tropica promastigotes (setting [10]); 1.67 ± 0.43 µM in data set [4] (setting [11]); < 1 µM in data set [5] (setting [12]); 0.85 µM in [6]. Moreover, the CC50 at 72 h (in data set [3]; in the data set “in vitro”) was > 60 µM in each case. Further, the “SI (Selectivity index = IC50 dTHP-1/IC50 amastigotes)” value in [4] is listed as >35.9.

Take `CC[C@@H](C(=O)[C@@H](C)[C@@H](O)[C@H](C)[C@@H]1O[C@@H]([C@@H](CC)C(=O)O)CC[C@@H]1C)[C@H]1O[C@]2(C=C[C@@H](O)[C@]3(CC[C@@](C)([C@H]4CC[C@](O)(CC)[C@H](C)O4)O3)O2)[C@H](C)C[C@@H]1C` [Salinomycin, salinomycin]: the IC50 in data set [1] (Leishmania infantum, 72 h, read-out: IC50 against L. infantum promastigotes, MTT assay after 72 h of treatment) is ~8 µM; in data set [1] (read-out: IC50 against L. infantum promastigotes, MTT assay after 72 h of treatment) it was 7.98 ± 0.64 µM; in data set [2] (Leishmania braziliensis, 72 h, read-out: IC50 against L. braziliensis promastigotes, MTT assay after 72 h of treatment), ~5 µM; in data set [2] (read-out: IC50 against L. braziliensis promastigotes, MTT assay after 72 h of treatment), 5.08 ± 1.74 µM; in the data set with L. tropica promastigotes (Leishmania tropica, 72 h, read-out: IC50 against L. tropica promastigotes, MTT assay after 72 h of treatment) it was ~5 µM; with L. tropica promastigotes (read-out: IC50 against L. tropica promastigotes, MTT assay after 72 h of treatment) it was 4.53 ± 0.6 µM. Besides, the 50% inhibitory concentration (IC50) in data set [4] (72 h) was 1.93 ± 0.1 µM; in data set [5] it was > 4 µM; in [7], ~1.7 µM. For the same compound, the CC50 at 72 h in data set [3] (setting [13]) is 32.1 ± 5.3 µM; in “in vitro” it was > 60 µM. In addition, the “SI (Selectivity index = IC50 dTHP-1/IC50 amastigotes)” value in [4] is 16.6.

`CO[C@@H]1C[C@@H](C[C@H]2CC[C@H](C)[C@H]([C@@H](C)C(=O)O)O2)O[C@]2(O[C@](C)([C@H]3CC[C@@](C)([C@@H]4O[C@@H]([C@H]5O[C@@](O)(CO)[C@H](C)C[C@@H]5C)C[C@@H]4C)O3)C[C@H]2C)[C@@H]1C` [Nigericin, nigericin]: the IC50 in [1] (setting [8]) was 0.37 ± 0.04 µM; in data set [2] (setting [9]), 0.78 ± 0.08 µM; in the data set on L. tropica promastigotes (setting [10]) it was 0.23 ± 0.05 µM; in data set [4] (setting [11]) it was 1.79 ± 0.83 µM; in data set [5] (setting [12]), < 1 µM. The CC50 at 72 h (in data set [3]; in “in vitro”) was > 60 µM in each case. Also, the “SI (Selectivity index = IC50 dTHP-1/IC50 amastigotes)” value in data set [4] is reported as >33.5.

In the case of `C[C@@H]1[C@H](O)[C@@H](C)/C=C/C=C/C=C/C=C/C=C/C=C/C=C/[C@H](O[C@@H]2O[C@H](C)[C@@H](O)[C@H](N)[C@@H]2O)C[C@@H]2O[C@](O)(C[C@@H](O)C[C@@H](O)[C@H](O)CC[C@@H](O)C[C@@H](O)CC(=O)O[C@H]1C)C[C@H](O)[C@H]2C(=O)O` [Amphotericin B], the IC50 in data set [1] (setting [8]) amounted to 0.12 ± 0.02 µM; in data set [2] (setting [9]), 0.08 ± 0.02 µM; in the data set on L. tropica promastigotes (setting [10]), 0.1 ± 0.02 µM; in data set [4] (setting [11]), 0.18 ± 0.03 µM. Further, the CC50 at 72 h in data set [3] (setting [13]) was > 20 µM. Moreover, the “SI (Selectivity index = IC50 dTHP-1/IC50 amastigotes)” value in [4] is given as >111.1.

For orientation: IC50 means the concentration at which inhibition is half-maximal. As usually defined, the CC50 is the concentration that lowers cell viability or growth by half.
